We go through six molecules from publication PMC4428838, “Optimization of Invasion-Specific Effects of Betulin Derivatives on Prostate Cancer Cells through Lead Development” (PLoS ONE, 2015).

Holding throughout (type): cell-based
The subject of experiment [1] is PC-3. Briefly: cells. The settings on record: Homo sapiens, PC-3; 2D monolayer, 72 h, Harmony software; no unit in the table, μM; read-out: Estimated EC50 values for cell proliferation, PC-3. The protocol: (§1) To rule out that cytotoxic and antimitotic effects were misinterpreted as anti-invasive, we tested compounds 4, 5, 6, 19 and 20 for inhibition of proliferation and induction of cell death in a 2D monolayer culture (summarized in Fig 6). […] LNCaP cells were more sensitive, with growth inhibition/cytotoxicity starting at 3 μM. The effects on non-transformed, apoptosis-sensitive Ep156T cells were strongest. Here, cytotoxic effects were typically observed already at 0.3–1 μM. […] We further calculated EC50 values for proliferation, apoptosis and cell death for each compound, using the PerkinElmer Harmony software (method validation shown in S7 Fig). The only assay that produced results consistent with those of the betulin derivatives tested in the 2D cell culture model was the proliferation assay (Table 1).
(§2) Fig 6 Cytotoxicity tests performed in 2D monolayer culture. A) Cell proliferation/cell number, B) programmed cell death (apoptosis), and C) number of dead cells were assessed by conventional assays, combined with high-content microscopy (Operetta). […] Proliferation was measured as the total number of nuclei (= cells), apoptosis as ratio of caspase-3 positive versus all cells, and cell death as ethidium homodimer-2 positive nuclei versus all cells.
(§3) Cells were transferred into CellCarrier 384-well plates (PerkinElmer, Waltham, MA, USA) at a density of 1250 cells/well, using Multidrop dispenser (ThermoFisher Scientific, Waltham, MA, USA). After overnight incubation at 37°C experimental, compounds were added with an ATS Acoustic Transfer System (EDC Biosystems, Fremont, CA, USA). For Ep156T cells the protocol was done in reverse with compounds dispensed before seeding of cells. Fluorescent markers were dispensed in culture medium using ATS system after 72-h compound exposure. Nuclei were stained with cell-permeable Hoechst 33342 (Molecular Probes, Eugene, OR, USA), dead cells with ethidium homodimer-2 (Invitrogen, Carlsbad, CA, USA) and apoptotic cells with NucView caspase-3 detection reagent (Essen Bioscience, Ann Arbor, MI, USA). Cells were imaged with Operetta high-content imager (PerkinElmer, Waltham, MA, USA). Proliferation was measured from the number of nuclei (cells), cell death and apoptosis from positive cells/total cells ratio using Harmony image analysis software (PerkinElmer, Waltham, MA, USA). EC50 values were also assessed with the Harmony software.

Another experiment has as its system LNCaP. Briefly: Proliferation assay in 2D monolayer culture (number of nuclei, Operetta high-content imager, 72 h). Particulars: Homo sapiens, Harmony software, no unit in the table, μM, read-out: Estimated EC50 values for cell proliferation, LNCaP. The protocol:
as §1, §2, §3

In a further experiment the test system is EP156T. The description is as above. The settings on record: Harmony software, no unit in the table, μM, read-out: Estimated EC50 values for cell proliferation, EP156T. The protocol:
as §1, with “6). A broad range of compound concentrations (1 nM to 30 μM) were used for PC-3, LNCaP and Ep156T cell lines, and analyzed with the PerkinElmer Operetta high-content imager.” for “6).”
as §2, §3

The test system of experiment [2] is PC-3, LNCaP, LAPC-4, Ep156T. Briefly: Primary and secondary 3D screens combined across the cell line panel. The settings on record: cell lines other than PC-3, 3D, 300 nM or lower (except compound 15). The protocol: Fig 5 Secondary 3D screens. Experimental betulin derivatives and control compounds were tested across a panel of prostate cancer lines (LNCaP, LAPC-4) and non-transformed, prostate epithelial cells (EP156T) in 3D culture. A) The dendrogram is based on three main morphological parameters and combines all data from primary and secondary 3D screens. Effective compound treatments are indicated in red and yellow, yellow being the most invasion-specific. B) Boxplots showing the impact of selected compounds on spheroid size (Area). Data scaling: as described in Fig 4 C) Effects of all betulin derivatives and control compounds on cell death (number of dead cells).
In order to assist functional categorization of our betulin derivatives, we combined all data into a single dendrogram, shown in Fig 5A. In addition, multiparametric representation of all experimental data as a single heatmap is highly informative (S5 Fig) and a potent way to illustrate the effects of compounds on growth, structural complexity and cell death across multiple cell lines. […] However, at lower concentrations, these compounds may act as potent and specific inhibitors of cell invasion and motility.
Supplementary file pone.0126111.s005.eps: S5 Fig Primary and secondary screens. […] The main read-outs (Area = Size, Complexity = Invasiveness, Red = Cell death) are shown in their own columns. Data scaling: DMSO control has been given a value 0 whereas paclitaxel control is valued -100 or 100 depending on the read-out. Color key is located in the upper right corner. (EPS) Click here for additional data file.
Supplementary file pone.0126111.s006.tif: S6 Fig Confocal images from primary and secondary betulin screens. Viable cells have been stained with calcein AM (green) and dead cells with ethidium homodimer-2 (red) (5× objective, maximum intensity projections, scale bar = 100 μm). (TIF) Click here for additional data file.

Experiment [3] deals with PC-3. Briefly: Wound healing assay in 2D monolayer culture (IncuCyte). The settings on record: for wound healing 50% cut-off concentration: 2D monolayer, printed in Fig 4D; for reduction of wound closure: at 300 nM, after 64 hours, 2D. The protocol: Cells were cultured on ImageLock plates (Essen Bioscience, Ann Arbor, MI, USA) until fully confluent and scratched with a WoundMaker instrument (Essen Bioscience). All detached cells were removed by aspiration and medium supplemented with experimental compounds was added. Wound closure was monitored and quantified with the IncuCyte live-cell imager (Essen Bioscience).
A) Graph showing the transition of PC-3 spheroids from symmetrical acini to irregular invasive structures over 6 days, as measured by general symmetry (roundness %). […] B) Conventional wound healing assay performed in monolayer culture over a period of 64 hours. Wound closure is measured as relative wound density i.e. percentage of original wound area reclaimed by migrating cells. […] (EPS) Click here for additional data file.

On to `CC(=O)O[C@H]1C(=O)[C@@]2(C)[C@H]([C@H](OC(=O)c3ccccc3)[C@]3(O)C[C@H](OC(=O)[C@H](O)[C@@H](NC(=O)c4ccccc4)c4ccccc4)C(C)=C1C3(C)C)[C@]1(OC(C)=O)CO[C@@H]1C[C@@H]2O` [Paclitaxel, paclitaxel, reference compound], for which the EC50 in the experiment with PC-3 [1] is 0.0012 µM; with LNCaP it was 0.0006 µM; in the experiment with EP156T it was 0.0008 µM.

`C=C(C)[C@@H]1CC[C@]2(C(=O)O)CC[C@]3(C)C(CCC4[C@@]5(C)Cc6cccnc6C(C)(C)C5CC[C@]43C)C12` (stereo partly drawn) [Compound 19]: the values for the EC50 with PC-3 [1], with LNCaP and in the experiment on EP156T were 86.9 µM, 0.9 µM and 0.18 µM, respectively. Moreover, in experiment [2], the “effects on the other cell lines at anti-invasive concentrations” value (“effects on the other cell lines” below) is listed as “no noticeable effects on the other cell lines”.

As for `C=C(C)[C@@H]1CC[C@]2(C(=O)O)CC[C@]3(C)C(CCC4[C@@]5(C)Cc6ncccc6C(C)(C)C5CC[C@]43C)C12` (stereo partly drawn) [Compound 20], the EC50 in the experiment with PC-3 [1] is 66.9 µM; in the experiment on LNCaP, 132 µM; in the experiment with EP156T, 0.19 µM. In addition, the “wound healing 50% cut-off concentration” value with PC-3 [3] was “ca. 0.3 μM”. Besides, the “reduction of wound closure” value in the experiment on PC-3 [3] is 50%. Further, the “effects on the other cell lines” value in experiment [2] is “no noticeable effects on the other cell lines”.

Consider `CC(C)[C@@H]1CC[C@]2(C(=O)O)CC[C@]3(C)C(CCC4[C@@]5(C)Cc6cnoc6C(C)(C)C5CC[C@]43C)C12` (stereo partly drawn) [Compound 4], for which the figures for the EC50 in the experiment with PC-3 [1], in the experiment with LNCaP and in the experiment on EP156T were 55.9 µM, 93.1 µM and 0.2 µM, respectively. Moreover, the “wound healing 50% cut-off concentration” value in the experiment on PC-3 [3] was “ca. 0.3 μM”. Moreover, the “reduction of wound closure” value with PC-3 [3] turned out to be 50%. Also, in experiment [2], the “effects on the other cell lines” value is “no noticeable effects on the other cell lines”.

As to `C=C(C)[C@@H]1CC[C@]2(C(=O)O)CC[C@]3(C)C(CCC4[C@@]5(C)Cc6cnoc6C(C)(C)C5CC[C@]43C)C12` (stereo partly drawn) [Compound 5], the EC50 with PC-3 [1] is 9.5 µM; with LNCaP it was 64.6 µM; in the experiment on EP156T, 0.22 µM. In addition, the “concentration required in 2D culture for effects comparable to 3D” value in the experiment with PC-3 [3] (2D wound healing) was “higher than 1 μM”.

With `C=C(C)[C@@H]1CC[C@]2(C(=O)O)CC[C@]3(C)C(CCC4[C@@]5(C)Cc6c[nH]nc6C(C)(C)C5CC[C@]43C)C12` (stereo partly drawn) [Compound 6], the EC50 in the experiment on PC-3 [1] is 90.8 µM; in the experiment on LNCaP it was 6.4 µM; with EP156T, 0.21 µM. For the same molecule, the “effects on the other cell lines” value in experiment [2] is “no noticeable effects on the other cell lines”.
